What all share (type): physicochemical
Series [1] is described as follows: Release testing and long-term (frozen) stability of aqueous peptide mixtures (143 µg/mL per peptide in PBS 10 mM pH 7.0), UPLC-MS.
Series [2] in a line: In-use stability of thawed aqueous peptide mixtures at room temperature, UPLC-MS. The following applies: 4 h room temperature.
Series [3] in a line: Filter experiment: peptide adsorption to the 0.22 µm sterilization filter, UPLC-MS.

Turning to “GVDYASCGHLVKIWPRRMNRSDVCTVWS [FRM001P13, neoantigen peptide, in FRM001-M4]”, the Peptide peak ratio was found to be 13.6% in series [1] (in FRM001-M4, 2 w −25 °C); 14.6% in series [1] (in FRM001-M4, 4 w −25 °C); 14.7% in series [1] (in FRM001-M4, 8 w −25 °C); 14.9% in series [1] (in FRM001-M4, 8 w −80 °C); 14.4% in series [1] (in FRM001-M4, 12 w −25 °C); 14.6% in series [1] (in FRM001-M4, 12 w −80 °C). The Peptide peak ratio was determined as 13.3% in series [1] (in FRM001-M4, 16 w −25 °C); 13.1% in series [1] (in FRM001-M4, 16 w −80 °C); 13.6% in series [1] (in FRM001-M4, 32 w −25 °C); 13.9% in series [1] (in FRM001-M4, 32 w −80 °C); 14.2% in series [1] (in FRM001-M4, t = 0 w); 13.4% in series [2] (in FRM001-M4, 2 w −25 °C). In addition, the Peptide peak ratio in series [2] (in FRM001-M4, 4 w −25 °C) was 14.5%; in series [2] (in FRM001-M4, 8 w −25 °C), 14.4%; in series [2] (in FRM001-M4, 8 w −80 °C) it was 14.7%; in series [2] (in FRM001-M4, 12 w −25 °C) it was 14.6%; in series [2] (in FRM001-M4, 12 w −80 °C) it was 14.4%; in series [2] (in FRM001-M4, 16 w −25 °C) it was 13.1%. For the same sequence, the Peptide peak ratio in series [2] (in FRM001-M4, 16 w −80 °C) is on record as 13.0%; in series [2] (in FRM001-M4, 32 w −25 °C), 13.5%; in series [2] (in FRM001-M4, 32 w −80 °C) it was 13.4%. Further, the Peak ratio in series [3] (in FRM001M4, unfiltered sample) was determined as 14.1%.
Take “NTDPSCSCVTPLDFNHCLKNREDNGLPMLS [FRM001P10, neoantigen peptide, in FRM001-M2]”: the Peptide peak ratio in series [1] (in FRM001-M2, 2 w −25 °C) was 7.2%; in series [1] (in FRM001-M2, 4 w −25 °C) it was 11.5%; in series [1] (in FRM001-M2, 8 w −25 °C), 11.0%; in series [1] (in FRM001-M2, 8 w −80 °C), 12.9%; in series [1] (in FRM001-M2, 12 w −25 °C), 14.2%; in series [1] (in FRM001-M2, 12 w −80 °C), 13.8%. For the same sequence, the Peptide peak ratio came to 9.6% in series [1] (in FRM001-M2, 16 w −25 °C); 10.4% in series [1] (in FRM001-M2, 16 w −80 °C); 10.8% in series [1] (in FRM001-M2, 32 w −25 °C); 10.7% in series [1] (in FRM001-M2, 32 w −80 °C); 9.1% in series [1] (in FRM001-M2, t = 0 w); 8.9% in series [2] (in FRM001-M2, 2 w −25 °C). Also, the Peptide peak ratio in series [2] (in FRM001-M2, 4 w −25 °C) is on record as 12.1%; in series [2] (in FRM001-M2, 8 w −25 °C), 12.1%; in series [2] (in FRM001-M2, 8 w −80 °C), 12.0%; in series [2] (in FRM001-M2, 12 w −25 °C) it was 13.7%; in series [2] (in FRM001-M2, 12 w −80 °C), 13.2%; in series [2] (in FRM001-M2, 16 w −25 °C) it was 10.2%. The Peptide peak ratio in series [2] (in FRM001-M2, 16 w −80 °C) is listed as 10.1%; in series [2] (in FRM001-M2, 32 w −25 °C), 9.6%; in series [2] (in FRM001-M2, 32 w −80 °C) it was 9.3%. In addition, the Peak ratio in series [3] (in FRM001M2, unfiltered sample) is on record as 6.1%.
“RHSPNGNGPRSQHHSLITTNTDPSCSCVT [FRM001P14, neoantigen peptide, in FRM001-M1]”: the Peptide peak ratio in series [1] (in FRM001-M1, 2 w −25 °C) stood at 11.2%; in series [1] (in FRM001-M1, 4 w −25 °C), 10.5%; in series [1] (in FRM001-M1, 8 w −25 °C), 10.9%; in series [1] (in FRM001-M1, 8 w −80 °C) it was 10.8%; in series [1] (in FRM001-M1, 12 w −25 °C), 11.9%; in series [1] (in FRM001-M1, 16 w −25 °C), 10.1%. Moreover, the Peptide peak ratio was 10.7% in series [1] (in FRM001-M1, 16 w −80 °C); 7.5% in series [1] (in FRM001-M1, 32 w −25 °C); 11.8% in series [1] (in FRM001-M1, 32 w −80 °C); 10.8% in series [1] (in FRM001-M1, t = 0 w, % area of peptide peak of sum of the six peptide peaks); 11.3% in series [2] (in FRM001-M1, 2 w −25 °C); 10.5% in series [2] (in FRM001-M1, 4 w −25 °C). The Peptide peak ratio is on record as 10.8% in series [2] (in FRM001-M1, 8 w −25 °C); 10.7% in series [2] (in FRM001-M1, 8 w −80 °C); 11.2% in series [2] (in FRM001-M1, 12 w −25 °C); 11.2% in series [2] (in FRM001-M1, 12 w −80 °C); 10.5% in series [2] (in FRM001-M1, 16 w −25 °C); 10.6% in series [2] (in FRM001-M1, 16 w −80 °C). Also, the Peptide peak ratio in series [2] (in FRM001-M1, 32 w −25 °C) amounted to 10.9%; in series [2] (in FRM001-M1, 32 w −80 °C) it was 11.5%. Besides, the Peak ratio in series [3] (in FRM001M1, filtered (0.22 µm Millex GV)) is 10.8%; in series [3] (in FRM001M1, unfiltered sample) it was 10.9%.
